# Experimental data reported in patent publication US10801024B2, “Inhibition of lncRNA HOTAIR and related materials and methods” (Indiana University Research and Technology Corporation, priority 2015, dated 2020).
# What was measured:
# IL-6, MMP-9 and ALDH1A1 = experiment: Mouse xenograft: blood IL-6 (ELISA) and tumor expression of HOTAIR targets; format: in vivo, mice; conditions: CDDP alone; after the second bi-weekly treatment
# A2780_CR5 [1] = experiment: Mouse xenograft: tumor volume and survival; format: in vivo; conditions: CDDP-treated mice
# Description: All animal studies adhered to ethical regulations and protocols. To assess tumorigenicity of cells, cultured A2780_CR5 cells were washed with PBS trypsinized and counted with trypan blue, re-suspended in 1:1 PBS/matrigel (BD Bioscience) and 2×10^6 cells were injected subcutaneously into the left flank of 3- to 4-week-old female nude athymic mice (BALB/c-nu/nu; Harlan, Indianapolis, Ind.). Engrafted mice (n=6 per group) were inspected three times per week for tumor appearance by visual observation and palpation. Once tumors were ˜200 mm^3, mice were treated with either CDDP (2 mg kg−1) or PNA (1 mg kg−1) or both CDDP and PNA twice per week for two weeks. Blood samples were collected by puncturing the left lateral saphenous vein with a needle and collected using a capillary tube. Tumor length (l) and width (w) were measured biweekly using digital calipers and tumor volume (v) was calculated as v=½×1×w2. No randomization was used and no animals were excluded from the final data. […]
# [2] = Mouse xenograft: body weight, spleen and liver weight, histology; format: in vivo
# Description: In another exemplary method, to investigate anti-tumor properties of pHLIP-PNA3 in vivo, BALB/C mice were subcutaneously injected with CDDP-resistant A2780_CR5 (2×10^6 cells). Once tumors reached ˜200 mm^3, mice were injected intravenously (two times per week for 2 weeks) with pHLIP-PNA3 (1 mg/kg), pHLIP-control PNA (1 mg/kg), and/or CDDP (2 mg/kg i.p.) at indicated times (FIG. 14A). Tumor volume was reduced (p=0.02) in mice co-administered pHLIP-PNA3+CDDP compared to pHLIP-control PNA+CDDP (FIG. 13A). Tumor volume in mice treated with either pHLIP-PNA alone was similar to vehicle-treated mice (FIG. 14A). Importantly, survival of mice treated with pHLIP-PNA3 vs. mock was increased 1.6-fold (39 vs. 25 days; FIG. 13B), and body weight was similar among groups (FIG. 14B), showing that PNAs are non-toxic in vivo. […]
# All animal studies adhered to ethical regulations and protocols. To assess tumorigenicity of cells, cultured A2780_CR5 cells were washed with PBS trypsinized and counted with trypan blue, re-suspended in 1:1 PBS/matrigel (BD Bioscience) and 2×10^6 cells were injected subcutaneously into the left flank of 3- to 4-week-old female nude athymic mice (BALB/c-nu/nu; Harlan, Indianapolis, Ind.). […] Tumor length (l) and width (w) were measured biweekly using digital calipers and tumor volume (v) was calculated as v=½×1×w2. […]
# A2780_CR5 [3] = experiment: Survival assay after inhibiting HOTAIR and/or EZH2; format: cell-based; conditions: dsiRNA targeting HOTAIR combined with GSK126; platinum-resistant cells
# Description: In one exemplary method, the effect of inhibiting both HOTAIR and EZH2 on cancer cell survival was investigated. A highly platinum-resistant ovarian cancer cell line (A2780_CR5) was treated with dsiRNA targeting HOTAIR and/or a pharmacological inhibitor of EZH2 (GSK126), followed by survival assays. As an additive (P<0.05) effect of inhibiting HOTAIR-EZH2 on drug sensitivity and survival was observed (versus inhibiting either factor alone; FIG. 2A), it was next of interest to target the HOTAIR-EZH2 interaction by targeting the 89-mer minimum interacting region of HOTAIR, which has been shown. mFold (Zuker, M., Mfold web server for nucleic acid folding and hybridization prediction. Nucleic acids research, 2003. 31(13):3406-3415, incorporated herein by reference in its entirety) was used to validate the predicted secondary structure of this site, observing a highly predicted, single-stranded region in all 19 predicted structures, which complemented previous such structures (FIG. 3A).
# HOTAIR expression = experiment: Cytokine/chemokine screen, HOTAIR levels; format: cell-based; conditions: A2780 p cells, 10 ng/mL
# Description: FIG. 11A is a line graph showing changes in HOTAIR target gene expression in A2780 p cells treated with IGF, TGF-β, EGF, IL-1α, or TNF-α (10 ng/mL). Asterisks indicate P<0.05 (*) or P<0.01 (**).
# As a positive association between HOTAIR and the master transcription factor NF-κB has been reported. […] In an exemplary method, a cytokine/chemokine screen was performed, followed by the measurement of HOTAIR levels. Of the cytokines examined, HOTAIR expression was increased (P<0.05) by TNF-α (>15-fold) and TGF-β (5-fold) compared to control (FIG. 11A). To further confirm HOTAIR induction of NF-κB, a luciferase reporter construct containing the E-selectin promoter was used (861 base pairs containing 3 canonical NF-κB-p65-binding sites as a positive control; FIG. 3B) (Ozes, O. N., et al., NF-κB activation by tumour necrosis factor requires the Akt serine-threonine kinase. Nature, 1999. 401(6748):82-85, incorporated herein by reference in its entirety) and a 1.4-fold increase (p<0.05) in luciferase activity was observed by ectopic overexpression of HOTAIR compared to vector control (FIG. 11B), which was decreased (P<0.05) by PNA3 (FIG. 11B). PNA3 treatment of breast and ovarian cancer cells decreased (P<0.05) IL-6 secretion into the media (FIG. 11C). […]
# A2780_CR5 [4] = experiment: Cell invasion assay (matrigel); format: cell-based; conditions: FIGS. 5D-5E (A2780_CR5 and SKBR-3)
# Description: In another exemplary method, ovarian cancer cells and breast cancer cells were treated with PNA3 or control PNA. Decreased (P<0.05) invasion of A2780_CR5 (2-fold, FIG. 5D), Kuramochi (0.6-fold, FIG. 9A) and SKBR-3 (2-fold, FIG. 5E) was observed, and the effect of PNA3 on cell invasion was essentially similar to knocking-down HOTAIR expression using siRNA (FIGS. 5D-5E). PNA3 or control PNA had no effect on A2780p and MDA-MB-231 cell invasion (FIGS. 9B-9C).
# Cells were grown in 6 cm culture plates until 70% confluence and treated with either PNA3 or control PNA (1 μM final) for 24 hr. Next day, the plates were trypsinized, serially diluted and 50,000 cells were seeded inside a matrigel invasion chamber insert (Corning, Cat #354480) in serum-free media supplemented with 0.1% BSA. Media supplemented with 20% FBS was added to the bottom of the well and 48 hrs later, cells were fixed and dyed using Wright-Giemsa method (Hema 3 Stat pack, Cat #23-122-929) and invasion was counted under a light microscope at 20× magnification. Relative cell invasion was measured by dividing the control number of invaded cells by the PNA-treated samples.
compound,measurement,setting,value
"[NH2][Pt]([NH2])([Cl])[Cl] [CDDP, cisplatin]",blood IL-6 levels compared to controls,"IL-6, MMP-9 and ALDH1A1",increased
same,H&E slides of tumors,A2780_CR5 [1],fewer cells
same,spleen size compared to mock treated,[2]; CDDP treatment,increased
same,liver size,[2]; similar trend as spleen,none were statistically significant
CC[C@H](C)n1cc(C)c2c(C(=O)NCc3c(C)cc(C)[nH]c3=O)cc(-c3ccc(N4CCNCC4)nc3)cc21 [GSK126],effect on drug sensitivity and survival of inhibiting both HOTAIR and EZH2 versus either alone,A2780_CR5 [3],additive
TGF-β,HOTAIR expression increase compared to control,HOTAIR expression,5 fold
TNF-α,HOTAIR expression increase compared to control,HOTAIR expression,> 15 fold
"dsiRNA targeting HOTAIR: dsiRNA targeting human HOTAIR, sense SEQ ID NO: 22, antisense SEQ ID NO: 23 (sense UUCUAAAUCCGUUCCAUUCCACUGCGA; antisense GCAGUGGAAUGGAACGGAUUUAGAA; antisense strand carries a 5'-phosphate, other chemistry not given here, further chemistry not given here)","cell invasion, in words",A2780_CR5 [4],decrease
same,effect on drug sensitivity and survival of inhibiting both HOTAIR and EZH2 versus either alone,A2780_CR5 [3],additive
